Assay results published in patent publication US6361758B1, “Cosolvent formulations” (Abbott Laboratories, priority 1998, dated 2002).

Tests used:
[1] = Stability of paracalcin in a cosolvent formulation; type: physicochemical; conditions: 5 μg/ml in 20% ethanol/30% propylene glycol/50% water
Procedure: Samples of paracalcin (5 μg/ml) in 20% ethanol/30% propylene glycol/50% water were prepared for stability testing. In an appropriate vessel, water for injection to approximately 30% of final volume is added. Propylene glycol is added to the vessel with mixing. In a separate container, the specified amount of paracalcin is dissolved in a portion of the ethanol (190 proof non-beverage), which is obtained from the total volume of ethanol specified for the batch, and added to the vessel with mixing. An additional aliquot of the batch ethanol is used to rinse the container and the rinsing solution is added to the vessel with mixing. The remaining alcohol is added to the vessel with mixing. Q.s. with water for injection to final volume and mix for approximately 30 minutes. The solution is filtered through a 0.45 micron membrane and dispensed into ampuls. Each ampul is flame sealed and autoclaved to F016.
One set of ampuls are tested (T=0) for percent paracalcin remaining in solution and served as control (i.e., 100% remaining). A second set of ampuls are stored at 40° C. and tested at 1, 2, and 3 months. A final set are stored at 30° C. and tested at 1, 2, 3, 6, 9, 12, 18, and 24 months. The results are shown in Table 2 as paracalcin remaining as a percent of control (T=0). Each time point represents 1 to 5 data points.

[2] = system: Staphylococcus aureus, Escherichia coli, Pseudomonas aeruginosa, Candida albicans, Aspergillus niger; assay: USP 23 preservative effectiveness test; type: cell-based; conditions: added to the 20% ethanol/30% PG formulation; data not shown
From the text: Solutions of 20% ethanol, 30% propylene glycol, 20% ethanol/30% PG, 30ethanol/20% PG, and 40% ethanol/10% PG were passed through a 0.45 micro filter and tested by the USP 23 preservative effectiveness test as described in United States Pharmacopoeia 23-NF 18, 1995 Ed., Chapter 51, page 1681, which is incorporated herein by reference. Briefly, this involves inoculating the test solution with 10^5 to 10^6 test organisms per milliliter and then determining the number of surviving organisms after 7, 14, 21, and 28 days incubation at 20-25° C. using standard microbiological methods. Day 0 data is not required by USP 23 but was included in this study. A filtration and wash method was used to remove the inactivating agents for purposes of recovering the microorganisms, but other equivalent agents can also be validated for use. The USP test organisms include the bacteria Staphylococcus aureus, Escherichia coli, and Pseudomonas aeruginosa, a yeast (Candida albicans), and a mold (Aspergillus niger). […] The yeast and mold must not increase from the initial inoculum level. The initial inoculum level can either be calculated by knowing the stock culture concentration or by using a buffer control instead of the test solution.

[3] = Solubility of paracalcin in a cosolvent system; type: physicochemical; conditions: 25° C.
Procedure: An adequate amount of paracalcin was weighed and added to 10 ml of cosolvent contained in a 10 ml stoppered glass test tube. Two samples were prepared for each cosolvent composition. The test tubes containing samples were shaken in a 25° C. reciprocal shaking water bath at 100 rpm. Upon complete dissolution, an aliquot was filtered through a 0.45 micron syringe filter and the filtrate diluted 1:1 with 50% methanol. The resulting diluted material was measured for the content of paracalcin.

C[C@H](/C=C/[C@H](C)C(C)(C)O)[C@H]1CC[C@H]2/C(=C/C=C3C[C@@H](O)C[C@H](O)C3)CCC[C@]12C [paracalcin, 19-nor-1α,3β,25-trihydroxy-9,10-secoergosta-5,7(E),22(E)-triene]
paracalcin remaining as a percent of control (T=0) ([1]; 30° C., 0 months (Initial), autoclaved ampuls): 100% of control
paracalcin remaining as a percent of control (T=0) ([1]; 30° C., 1 month): 96% of control
paracalcin remaining as a percent of control (T=0) ([1]; 30° C., 2 months): 96% of control
paracalcin remaining as a percent of control (T=0) ([1]; 30° C., 3 months): 97% of control
paracalcin remaining as a percent of control (T=0) ([1]; 30° C., 6 months): 96% of control
paracalcin remaining as a percent of control (T=0) ([1]; 30° C., 9 months): 97% of control
paracalcin remaining as a percent of control (T=0) ([1]; 30° C., 12 months): 100% of control
paracalcin remaining as a percent of control (T=0) ([1]; 30° C., 18 months): 97% of control
paracalcin remaining as a percent of control (T=0) ([1]; 30° C., 24 months): 96% of control
paracalcin remaining as a percent of control (T=0) ([1]; 40° C., 0 months (Initial), autoclaved ampuls): 100% of control
paracalcin remaining as a percent of control (T=0) ([1]; 40° C., 1 month): 96% of control
paracalcin remaining as a percent of control (T=0) ([1]; 40° C., 2 months): 96% of control
paracalcin remaining as a percent of control (T=0) ([1]; 40° C., 3 months): 98% of control
effect of addition of paracalcin on the preservative effect of the formulation [2]: no effect
Paracalcin concentration in cosolvent (solubility) ([3]; Ethanol 0.00, Propylene glycol 0.302, Water 0.698): 0.58 µg/mL
Paracalcin concentration in cosolvent (solubility) ([3]; Ethanol 0.00, Propylene glycol 0.506, Water 0.494): 14.21 µg/mL
Paracalcin concentration in cosolvent (solubility) ([3]; Ethanol 0.100, Propylene glycol 0.257, Water 0.643): 2.88 µg/mL
Paracalcin concentration in cosolvent (solubility) ([3]; Ethanol 0.199, Propylene glycol 0.207, Water 0.594): 15.94 µg/mL
Paracalcin concentration in cosolvent (solubility) ([3]; Ethanol 0.201, Propylene glycol 0.308, Water 0.491): 72.90 µg/mL
Paracalcin concentration in cosolvent (solubility) ([3]; Ethanol 0.299, Propylene glycol 0.00, Water 0.701): 6.82 µg/mL
Paracalcin concentration in cosolvent (solubility) ([3]; Ethanol 0.347, Propylene glycol 0.102, Water 0.551): 119.37 µg/mL
Paracalcin concentration in cosolvent (solubility) ([3]; Ethanol 0.498, Propylene glycol 0.00, Water 0.502): 601.63 µg/mL
